Reference: patent US9499550B2 (BRISTOL-MYERS SQUIBB COMPANY, priority 2012, dated 2016)
pEC50: −log10 of the molar value. Read-outs that look alike come from different tables or passages of the source.

Legend:
[1] = tested on: HCV genotype 1a (H77 strain) replicon in HUH-7 cells; assay: HCV replicon luciferase reporter assay, genotype 1a; format: cell-based; conditions: Hepatitis C virus, Huh-7, 72 h, 3 days incubation, read-out: LE_1a (EC50, range)
Method in brief: (§1)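 Replicon inhibition for both genotypes was measured as Renilla luciferase signal (EnduRen, 7.5 μM final, 2 h) after 3-day, 37° C exposure of replicon-bearing HUH-7 cells in 4% FCS DMEM, 0.5% DMSO. The 1b construct carries S1179I; the 1a H77 construct carries P1496L and S2204I. Twenty-point, 3-fold dilutions were fitted four-parametrically for EC50, and CC50 was taken from multiplexed Cell Titer-Blue.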

[2] = tested on: HCV genotype 1b (Con1) replicon in HUH-7 cells; assay: HCV replicon luciferase reporter assay, genotype 1b; format: cell-based; conditions: Hepatitis C virus, Huh-7, 72 h, 3 days incubation, read-out: LE_1b (EC50, range)
Method in brief: as §1

[3] = HCV genotype 1a replicon luciferase assay, range class
[4] = HCV genotype 1b replicon luciferase assay, range class
[5] = HCV genotype 1a replicon luciferase
[6] = HCV genotype 1b replicon luciferase

Row | Structure (SMILES) | pEC50 [1, 3] | pEC50 [2, 4] | pEC50 [1, 5] | pEC50 [2, 6] | also measured
1 | COc1cc2ccnc(O[C@@H]3C[C@H]4C(=O)N[C@]5(C(=O)NS(=O)(=O)C6(C(F)F)CC6)C[C@H]5/C=C\CC[C@@H](C)C[C@@H](C)[C@H](NC(=O)OC(C)(C)C(F)(F)F)C(=O)N4C3)c2cc1F [Compound 4093] |  |  |  |  | pEC50 ([1]; GETYPE1A, HCV genotype 1a replicon luciferase): > 8.26; pEC50 ([2]; GETYPE1B, HCV genotype 1b replicon luciferase): > 8.26
2 | COc1ccc2c(O[C@@H]3C[C@H]4C(=O)N[C@]5(C(=O)NS(=O)(=O)C6CC6)C[C@H]5/C=C\CC[C@H](C)C[C@@H](C)[C@H](NC(=O)OC(C)(C)C)C(=O)N4C3)nc(-c3ccc(OC(C)C)c(F)c3)cc2c1 [Compound 3059, tert-butyl ((2R,6S,7R,9S,13aS,14aR,16aS,Z)-14a-((cyclopropylsulfonyl)carbamoyl)-2-((3-(3-fluoro-4-isopropoxyphenyl)-6-methoxyisoquinolin-1-yl)oxy)-7,9-dimethyl-5,16-dioxo-1,2,3,5,6,7,8,9,10,11,13a,14,14a,15,16,16a-hexadecahydrocyclopropa[e]pyrrolo[1,2-a][1,4]diazacyclopentadecin-6-yl)carbamate] | 6.99 to 8.32 | > 8.26 |  |  | 
3 | COc1ccc2c(O[C@@H]3C[C@H]4C(=O)N[C@]5(C(=O)NS(=O)(=O)C6(C)CC6)C[C@H]5/C=C\CC[C@@H](C)C[C@@H](C)[C@H](NC(=O)OC5C[C@@H]6C[C@@H]6C5)C(=O)N4C3)nc(-c3ccc(OC(C)C)nc3)cc2c1 (stereo partly drawn) [Compound 5229, (1R,3r,5S)-bicyclo[3.1.0]hexan-3-yl((2R,6S,7R,9R,13aS,14aR,16aS,Z)-2-((3-(6-isopropoxypyridin-3-yl)-6-methoxyisoquinolin-1-yl)oxy)-7,9-dimethyl-14a-(((1-methylcyclopropyl)sulfonyl)carbamoyl)-5,16-dioxo-1,2,3,5,6,7,8,9,10,11,13a,14,14a,15,16,16a-hexadecahydrocyclopropa[e]pyrrolo[1,2-a][1,4]diazacyclopentadecin-6-yl)carbamate] |  |  | > 8.26 | > 8.26 | 
4 | C[C@@H]1CC/C=C\[C@@H]2C[C@@]2(C(=O)NS(=O)(=O)C2CC2)NC(=O)[C@@H]2C[C@@H](Oc3ncc(OCC(F)F)c4ccccc34)CN2C(=O)[C@@H](NC(=O)O[C@H](C)C(F)(F)F)[C@H](C)C1 [Compound 1034, (R)-1,1,1-trifluoropropan-2-yl((2R,6S,7R,9R,13aS,14aR,16aS,Z)-14a-((cyclopropylsulfonyl)carbamoyl)-2-((4-(2,2-difluoroethoxyl)isoquinolin-1-yl)oxy)-7,9-dimethyl-5,16-dioxo-1,2,3,5,6,7,8,9,10,11,13a,14,14a,15,16,16a-hexadecahydrocyclopropa[e]pyrrolo[1,2-a][1,4]diazacyclopentadecin-6-yl)carbamate] | > 8.26 | > 8.26 |  |  | 
5 | [2H]C([2H])([2H])C(OC(=O)N[C@@H]1C(=O)N2C[C@H](Oc3nnc(OCC)c4ccccc34)C[C@H]2C(=O)N[C@]2(C(=O)NS(=O)(=O)C3(C)CC3)C[C@H]2/C=C\CC[C@H](C)C[C@H]1C)(C([2H])([2H])[2H])C(F)(F)F [Compound 5032] |  |  | 6.99 to 8.32 | 6.99 to 8.32 | 
6 | COc1ccc2c(O[C@@H]3C[C@H]4C(=O)N[C@]5(C(=O)NS(=O)(=O)C6CC6)C[C@H]5/C=C\CC[C@@H](C)C[C@@H](C)[C@H](NC(=O)O[C@@H]5C[C@@H]6C[C@@H]6C5)C(=O)N4C3)nc(-c3ccccc3)cc2c1 [Compound 5188, (1R,3r,5S)-bicyclo[3.1.0]hexan-3-yl((2R,6S,7R,9R,13aS,14aR,16aS,Z)-14a-((cyclopropylsulfonyl)carbamoyl)-2-((6-methoxy-3-phenylisoquinolin-1-yl)oxy)-7,9-dimethyl-5,16-dioxo-1,2,3,5,6,7,8,9,10,11,13a,14,14a,15,16,16a-hexadecahydrocyclopropa[e]pyrrolo[1,2-a][1,4]diazacyclopentadecin-6-yl)carbamate] |  |  | > 8.26 | > 8.26 | 
7 | CC[C@@H]1C[C@H](C)CC/C=C\[C@@H]2C[C@@]2(C(=O)NS(=O)(=O)C2(C)CC2)NC(=O)[C@@H]2C[C@@H](Oc3nc(OC)cc4cc(OC)ccc34)CN2C(=O)[C@H]1NC(=O)OC(C)(C)C(C)(F)F [Compound 1124, 3,3-difluoro-2-methylbutan-2-yl((2R,6S,7R,9R,13aS,14aR,16aS,Z)-2-((3,6-dimethoxyisoquinolin-1-yl)oxy)-7-ethyl-9-methyl-14a-(((1-methylcyclopropyl)sulfonyl)carbamoyl)-5,16-dioxo-1,2,3,5,6,7,8,9,10,11,13a,14,14a,15,16,16a-hexadecahydrocyclopropa[e]pyrrolo[1,2-a][1,4]diazacyclopentadecin-6-yl)carbamate] | > 8.26 | > 8.26 |  |  | 
8 | CCOc1cc2ccnc(O[C@@H]3C[C@H]4C(=O)N[C@]5(C(=O)NS(=O)(=O)C6CC6)C[C@H]5/C=C\CC[C@@H](C)C[C@@H](C)[C@H](NC(=O)OC(C)(C)C(F)(F)F)C(=O)N4C3)c2cc1F [Compound 5401, 1,1,1-trifluoro-2-methylpropan-2-yl((2R,6S,7R,9R,13aS,14aR,16aS,Z)-14a-((cyclopropylsulfonyl)carbamoyl)-2-((6-ethoxy-7-fluoroisoquinolin-1-yl)oxy)-7,9-dimethyl-5,16-dioxo-1,2,3,5,6,7,8,9,10,11,13a,14,14a,15,16,16a-hexadecahydrocyclopropa[e]pyrrolo[1,2-a][1,4]diazacyclopentadecin-6-yl)carbamate] |  |  | 8.30 to 9.00 | 9.30 to 10.00 | 
9 | [2H]C([2H])([2H])C(OC(=O)N[C@@H]1C(=O)N2C[C@H](Oc3nccc4c5c(ccc34)N(C)CCO5)C[C@H]2C(=O)N[C@]2(C(=O)NS(=O)(=O)C3CC3)C[C@H]2/C=C\CC[C@@H](C)C[C@H]1C)(C([2H])([2H])[2H])C(F)(F)F [Compound 5280, 1,1,1,3,3,3-hexadeutero-2-(trifluoromethyl)propan-2-yl((2R,6S,7R,9R,13aS,14aR,16aS,Z)-14a-((cyclopropylsulfonyl)carbamoyl)-7,9-dimethyl-2-((4-methyl-3,4-dihydro-2H-[1,4]oxazino[2,3-f]isoquinolin-7-yl)oxy)-5,16-dioxo-1,2,3,5,6,7,8,9,10,11,13a,14,14a,15,16,16a-hexadecahydrocyclopropa[e]pyrrolo[1,2-a][1,4]diazacyclopentadecin-6-yl)carbamate] |  |  | > 8.26 | > 8.26 | 
10 | C[C@H]1CC/C=C\[C@@H]2C[C@@]2(C(=O)NS(=O)(=O)C2(C)CC2)NC(=O)[C@@H]2C[C@@H](Oc3ncc(OCC(F)F)c4ccccc34)CN2C(=O)[C@@H](NC(=O)OC(C)(C)C)[C@H](C)C1 [Compound 1025, tert-butyl ((2R,6S,7R,9S,13aS,14aR,16aS,Z)-2-((4-(2,2-difluoroethoxyl)isoquinolin-1-yl)oxy)-7,9-dimethyl-14a-(((1-methylcyclopropyl)sulfonyl)carbamoyl)-5,16-dioxo-1,2,3,5,6,7,8,9,10,11,13a,14,14a,15,16,16a-hexadecahydrocyclopropa[e]pyrrolo[1,2-a][1,4]diazacyclopentadecin-6-yl)carbamate] | 6.99 to 8.32 | > 8.26 |  |  | 
11 | [2H]C([2H])([2H])C(OC(=O)N[C@@H]1C(=O)N2C[C@H](Oc3nc(N(C)C)cc4cc(OC)ccc34)C[C@H]2C(=O)N[C@]2(C(=O)NS(=O)(=O)C3(C)CC3)C[C@H]2/C=C\CC[C@@H](C)C[C@H]1C)(C([2H])([2H])[2H])C(F)(F)F [Compound 3115, 1,1,1,3,3,3-hexadeutero-2-(trifluoromethyl)propan-2-yl((2R,6S,7R,9R,13aS,14aR,16aS,Z)-2-((3-(dimethylamino)-6-methoxyisoquinolin-1-yl)oxy)-7,9-dimethyl-14a-(((1-methylcyclopropyl)sulfonyl)carbamoyl)-5,16-dioxo-1,2,3,5,6,7,8,9,10,11,13a,14,14a,15,16,16a-hexadecahydrocyclopropa[e]pyrrolo[1,2-a][1,4]diazacyclopentadecin-6-yl)carbamate] | 6.99 to 8.32 | 6.99 to 8.32 |  |  | 
12 | CC[C@@H]1C[C@H](C)CC/C=C\[C@@H]2C[C@@]2(C(=O)NS(=O)(=O)C2(C)CC2)NC(=O)[C@@H]2C[C@@H](Oc3nccc4c(OC)cccc34)CN2C(=O)[C@H]1NC(=O)OC(C)(C)C(F)(F)F [Compound 3028, 1,1,1-trifluoro-2-methylpropan-2-yl((2R,6S,7R,9R,13aS,14aR,16aS,Z)-7-ethyl-2-((5-methoxyisoquinolin-1-yl)oxy)-9-methyl-14a-(((1-methylcyclopropyl)sulfonyl)carbamoyl)-5,16-dioxo-1,2,3,5,6,7,8,9,10,11,13a,14,14a,15,16,16a-hexadecahydrocyclopropa[e]pyrrolo[1,2-a][1,4]diazacyclopentadecin-6-yl)carbamate] | > 8.26 | > 8.26 |  |  | 
13 | CCOc1ccc2c(O[C@@H]3C[C@H]4C(=O)N[C@]5(C(=O)NS(=O)(=O)C6(C)CC6)C[C@H]5/C=C\CC[C@@H](C)C[C@@H](C)[C@H](NC(=O)OC(C)(C)C)C(=O)N4C3)nccc2c1 [Compound 5134, tert-butyl ((2R,6S,7R,9R,13aS,14aR,16aS,Z)-2-((6-ethoxyisoquinolin-1-yl)oxy)-7,9-dimethyl-14a-(((1-methylcyclopropyl)sulfonyl)carbamoyl)-5,16-dioxo-1,2,3,5,6,7,8,9,10,11,13a,14,14a,15,16,16a-hexadecahydrocyclopropa[e]pyrrolo[1,2-a][1,4]diazacyclopentadecin-6-yl)carbamate] |  |  | > 8.26 | > 8.26 | 
